Laboratory results published in the supplement of paper PMC11208160.

Test: recombinant barcode read abundance after kanamycin selection (control-corrected) (log10(CPM+1)); higher = more efficient recombination; sequences stand for … in AGTGCAGAGAAAATCGGCCAGTTTTCTCTGCCTGCAGTCCGCATGCCGT…AGATTTATGCAGCGGACTGCCTTTCTCCCAAAGTGATAAACCGGACAGTATCATGGACCGGTTTTCCCGGTAATCCGTATTTGCAAGGTTGGTTTCACT; site = the 11-nt target
Procedure, shortened: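 Recombination efficiency comes from barcode counts at recombinant junctions, converted to counts per million, averaged and corrected against the control. Values appear as log10(CPM+1). They were obtained from a pooled E. coli screen in which each oligo paired a target with an IS621 bridge RNA target-binding loop, and cells were plated in duplicate on chloramphenicol/ampicillin LB agar or on chloramphenicol/ampicillin/kanamycin with 0.1 mM IPTG.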
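Further: IS621 recombinase and bridge RNA in Escherichia coli cells.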

Sequence	recombinant barcode read abundance (log10)
TGAAGGTCTTGGGTTCTAACCTGTTGCCT (site TGAAGGTCTAG)	0.485
TGAAGGTCTTGGGTTCTAACCTGTTGCCT (site TGAATGTCTAG)	0.362
TGACCTACTTGGGTTCTAACCTGTTGCCA (site CTCTACTCTAC)	0.242
TGACCTACTTGGGTTCTAACCTGTTGCCA (site TGACCTACTTG)	0.133
TGACTCTCTTGGGTTCTAACCTGTTGCCT (site TAACTCTCTAG)	0.163
TGACTCTCTTGGGTTCTAACCTGTTGCCT (site TCACTCTCTAG)	0.172
TGACTCTCTTGGGTTCTAACCTGTTGCCT (site TGACTCTCTAG)	1.02
TGACTCTCTTGGGTTCTAACCTGTTGCCT (site TTACTCTCTAG)	0.228
TGAGAAGCTTGGGTTCTAACCTGTTGCCT (site TGACCAGCTAG)	0.299
TGAGAAGCTTGGGTTCTAACCTGTTGCCT (site TGAGAAGCTAG)	1.1
TGAGCACCTTGGGTTCTAACCTGTTGCCT (site AGAGGACCTAG)	0.158
TGAGCACCTTGGGTTCTAACCTGTTGCCT (site TGAGCACCTAG)	1.74
TGAGGCACTTGGGTTCTAACCTGTTGCCT (site TGAGGATCTAG)	0.03
TGAGGCACTTGGGTTCTAACCTGTTGCCT (site TGAGGCACTAG)	0.474
TGAGGGCCTTGGGTTCTAACCTGTTGCCT (site AGAGGTCCTAG)	0.186
TGAGGGCCTTGGGTTCTAACCTGTTGCCT (site TGAGGGCCTAG)	1.26
TGAGGGGCTTGGGTTCTAACCTGTTGCCT (site TGAGAGGCTAG)	0.275
TGAGGGGCTTGGGTTCTAACCTGTTGCCT (site TGAGCGGCTAG)	0.242
TGAGGGGCTTGGGTTCTAACCTGTTGCCT (site TGAGGGGCTAG)	1.24
TGAGGGGCTTGGGTTCTAACCTGTTGCCT (site TGAGTGGCTAG)	0.197
TGAGGGTCTTGGGTTCTAACCTGTTGCTT (site AGAGGGTCTAA)	0.497
TGAGGGTCTTGGGTTCTAACCTGTTGCTT (site CGAGGGTCTAA)	0.136

Sequence	recombinant barcode read abundance (log10)
TGAGGGTCTTGGGTTCTAACCTGTTGCTT (site GGAGGGTCTAA)	0.0368
TGAGGGTCTTGGGTTCTAACCTGTTGCTT (site TGAGGGTCTAA)	0.452
TGAGTCTCTTGGGTTCTAACCTGTTGCCA (site ACCCAGCCTCT)	0.0473
TGAGTCTCTTGGGTTCTAACCTGTTGCCA (site TGAGTCTCTTG)	1.47
TGAGTTCCTTGGGTTCTAACCTGTTGCTT (site TGAGTACCTAA)	0.0626
TGAGTTCCTTGGGTTCTAACCTGTTGCTT (site TGAGTCCCTAA)	0.0401
TGAGTTCCTTGGGTTCTAACCTGTTGCTT (site TGAGTGCCTAA)	0.00865
TGAGTTCCTTGGGTTCTAACCTGTTGCTT (site TGAGTTCCTAA)	0.719
TGATAGACTTGGGTTCTAACCTGTTGCAC (site AGAGAGACTGT)	0.0172
TGATAGACTTGGGTTCTAACCTGTTGCAC (site TGATAGACTGT)	1.38
TGATTTCCTTGGGTTCTAACCTGTTGCCT (site AGATTGCCTAG)	0
TGATTTCCTTGGGTTCTAACCTGTTGCCT (site TGATTTCCTAG)	0
TGCAATACTTGGGTTCTAACCTGTTGCAT (site ACAGTATCTCA)	0.054
TGCAATACTTGGGTTCTAACCTGTTGCAT (site TGCAATACTAT)	0.136
TGCAGGGCTTGGGTTCTAACCTGTTGCGG (site GCATACACTTG)	0.177
TGCAGGGCTTGGGTTCTAACCTGTTGCGG (site TGCAGGGCTCC)	1.26
TGCCAGACTTGGGTTCTAACCTGTTGCAT (site TGCCAGACTAT)	1.12
TGCCAGACTTGGGTTCTAACCTGTTGCAT (site TGCCAGCCTAG)	0.466
TGCCCGCCTTGGGTTCTAACCTGTTGCCT (site AGCCCGCCTAG)	0.0736
TGCCCGCCTTGGGTTCTAACCTGTTGCCT (site CGCCCGCCTAG)	0.102
TGCCCGCCTTGGGTTCTAACCTGTTGCCT (site GGCCCGCCTAG)	0.757
TGCCCGCCTTGGGTTCTAACCTGTTGCCT (site TGCCCGCCTAG)	0.292

Sequence	recombinant barcode read abundance (log10)
TGCCGACCTTGGGTTCTAACCTGTTGCCT (site TGCCGACCTAG)	0.321
TGCCGACCTTGGGTTCTAACCTGTTGCCT (site TGCGGAGCTAG)	0.185
TGCCTAGCTTGGGTTCTAACCTGTTGCCT (site TGACTAGCTAG)	0.0824
TGCCTAGCTTGGGTTCTAACCTGTTGCCT (site TGCCTAGCTAG)	0.24
TGCCTAGCTTGGGTTCTAACCTGTTGCCT (site TGGCTAGCTAG)	0.11
TGCCTAGCTTGGGTTCTAACCTGTTGCCT (site TGTCTAGCTAG)	0.0825
TGCCTATCTTGGGTTCTAACCTGTTGCTT (site ATGTCTACTCT)	0.325
TGCCTATCTTGGGTTCTAACCTGTTGCTT (site TGCCTATCTAA)	0.52
TGCCTGCCTTGGGTTCTAACCTGTTGCCT (site AAGACAACTCC)	0.06
TGCCTGCCTTGGGTTCTAACCTGTTGCCT (site TGCCTGCCTAG)	0.287
TGCGCCTCTTGGGTTCTAACCTGTTGCTG (site TACGCCTCTTA)	0.108
TGCGCCTCTTGGGTTCTAACCTGTTGCTG (site TGCGCCTCTCA)	1.26
TGCGCTACTTGGGTTCTAACCTGTTGCCT (site TGCGCAACTAG)	0.0205
TGCGCTACTTGGGTTCTAACCTGTTGCCT (site TGCGCCACTAG)	0.0462
TGCGCTACTTGGGTTCTAACCTGTTGCCT (site TGCGCGACTAG)	0.141
TGCGCTACTTGGGTTCTAACCTGTTGCCT (site TGCGCTACTAG)	0.25
TGCGGAGCTTGGGTTCTAACCTGTTGCCG (site GATTATACTAA)	0.0782
TGCGGAGCTTGGGTTCTAACCTGTTGCCG (site TGCGGAGCTCG)	0.726
TGCGTCCCTTGGGTTCTAACCTGTTGCCT (site TGAGTCCCTAG)	0.405
TGCGTCCCTTGGGTTCTAACCTGTTGCCT (site TGCGTCCCTAG)	0.291
TGCGTCCCTTGGGTTCTAACCTGTTGCCT (site TGGGTCCCTAG)	0.117
TGCGTCCCTTGGGTTCTAACCTGTTGCCT (site TGTGTCCCTAG)	0.0158

Sequence	recombinant barcode read abundance (log10)
TGCTCCTCTTGGGTTCTAACCTGTTGCCT (site AGCTCCTCTAG)	0.0656
TGCTCCTCTTGGGTTCTAACCTGTTGCCT (site CGCTCCTCTAG)	0.153
TGCTCCTCTTGGGTTCTAACCTGTTGCCT (site GGCTCCTCTAG)	0.109
TGCTCCTCTTGGGTTCTAACCTGTTGCCT (site TGCTCCTCTAG)	0.274
TGCTTCCCTTGGGTTCTAACCTGTTGCGG (site TGCTTCCCTCC)	0.594
TGCTTCCCTTGGGTTCTAACCTGTTGCGG (site TGGTGCCCTCC)	0.114
TGGACGACTTGGGTTCTAACCTGTTGCTT (site GATCGAGCTCT)	0.0173
TGGACGACTTGGGTTCTAACCTGTTGCTT (site TGGACGACTAA)	0.592
TGGACGCCTTGGGTTCTAACCTGTTGCCT (site TGGACGCCTAG)	0.252
TGGACGCCTTGGGTTCTAACCTGTTGCCT (site TGGACGTCTAG)	0.0267
TGGAGCACTTGGGTTCTAACCTGTTGCCT (site TGGAACACTAG)	0
TGGAGCACTTGGGTTCTAACCTGTTGCCT (site TGGACCACTAG)	0.107
TGGAGCACTTGGGTTCTAACCTGTTGCCT (site TGGAGCACTAG)	1.11
TGGAGCACTTGGGTTCTAACCTGTTGCCT (site TGGATCACTAG)	0.0861
TGGAGCCCTTGGGTTCTAACCTGTTGCAA (site TGGAGCCCTAT)	0.0946
TGGAGCCCTTGGGTTCTAACCTGTTGCAA (site TGGAGCCCTCT)	0.0367
TGGAGCCCTTGGGTTCTAACCTGTTGCAA (site TGGAGCCCTGT)	0.263
TGGAGCCCTTGGGTTCTAACCTGTTGCAA (site TGGAGCCCTTT)	0.155
TGGAGCCCTTGGGTTCTAACCTGTTGCAT (site TGGAGCCCTAT)	0.211
TGGAGCCCTTGGGTTCTAACCTGTTGCAT (site TGGAGCCCTCT)	0.053
